Source: patent publication US12144791B2, “KRAS agonists, pharmaceutical compositions, and uses in managing cancer” (Emory University, priority 2019, dated 2024)
Entries after “also recorded” stand apart in the source; their conditions may differ.

What was measured:
human lung cancer cells = experiment: Screening of cytotoxicity by sulforhodamine B (SRB) assay; assay type: cell-based; details: among top 500 docked NCI small molecules
Description: (§1) A library containing small molecules from the National Cancer Institute (NCI) was employed to dock the GTP/GDP binding pocket of KRAS (PDB ID code: 4EPT) using the University of California, San Francisco (UCSF) DOCK 6.1 program suite. The small molecules were ranked according to their energy scores. Top 500 small molecules with predicted binding energies were selected for screening of cytotoxicity in human lung cancer cells by sulforhodamine B (SRB) assay. […] This lead compound was named KRAS agonist-533 (KRA-533) (FIG. 1A). To test whether KRA-533 regulates KRAS activity in lung cancer cells, human lung cancer cell lines with or without KRAS mutation were treated with KRA-533 (10 μM) for 48 h. […] Cell proliferation was also measured following treatment of cells for 48 h using MTS Cell Proliferation Colorimetric Assay Kit.

KRAS = experiment: KRAS-GTP pull-down by Raf-1-RBD and Western blot in lung cancer cell lines; assay type: cell-based, human; details: 48 h
Procedure: “0” means DMSO vehicle control. […] Expression levels of KRAS, pERK, active caspase 3, PARP cleavage, Beclin1, LC3-I and LC3-II in total lysate were analyzed by Western blot.
as §1
(§2) Activated KRAS can trigger cell death via apoptosis and autophagy-associated cell death in cancer cells. To test whether KRA-533- activated KRAS promotes apoptosis and autophagic cell death, A549, H157, Calu-1 and H292 cells were treated with increasing concentrations of KRA-533 for 48 h, followed by analysis of KRAS activity, apoptosis and autophagy. […] Autophagy was measured by analysis of LC3-I/LC3-II and p62 following treatment of cells with KRA-533. It is well known that p62 is an autophagy receptor or substrate that can be degraded by autophagy. In addition to LC3-II, p62 was analyzed as another autophagy marker. […] To further quantify the level of autophagy, a GFP-LC3 construct was used to indicate autophagosomes. After treatment with KRA-533, GFP-LC3 redistributed from a diffuse staining pattern in the cytoplasm and nucleus to a cytoplasmic punctate structure that specifically labels pre-autophagosomal and autophagosomal membranes (i.e. GFP-LC3 vac cells). […] These findings indicate that, in addition to apoptosis, KRA-533 can also induce autophagic cell death.

KRAS WT = KRAS WT (Homo sapiens, UniProt P01116); experiment: Thermal shift assay, purified KRAS WT; assay type: binding; details: increasing concentrations
Procedure: Melting temperature (Tm) values of DMSO Ctrl and 15 μM of KRA-533 are shown.
Melting temperature (Tm) values of DMSO control and 15 μM KRA-533 are shown.
To test whether KRA-533 directly binds to KRAS, a thermal shift assay was employed. […] To further assess whether KRA-533 activates KRAS directly, an in vitro cell-free GDP-GTP exchange experiment was carried out. Purified WT, G12C, G12D or G13D mutant KRAS proteins were incubated with purified GEF (RASGRP1) and GAP (RASA1) proteins in reaction buffer containing [γ-35S]-GTP in the absence or presence of increasing concentrations of KRA-533 at 25° C. for 60 min. KRAS activity was quantified by liquid scintillation counting. […] These findings indicate that KRA-533 not only activates WT KRAS but also has the capacity to further enhance KRAS activity of mutant KRAS.
(§3) To further test this intracellularly, GFP-tagged WT, S17A, K117A and AA KRAS mutants were exogenously transfected into A549 cells. […] Activities of exogenous GFP-tagged WT and KRAS mutants were analyzed by Western blot using GFP antibody.

GFP-tagged KRAS S17A = molecular target: T1, GFP-tagged KRAS S17A (Homo sapiens, UniProt P01116, S17A); experiment: Raf-1-RBD pull-down of exogenous GFP-tagged KRAS S17A in A549 cells; assay type: cell-based; details: 15 μM, 48 h
T1 construct: expressed in transfected cells; host or cells: A549
Procedure: The GFP-tagged exogenous KRAS-GTP (GFP-KRAS-GTP) was analyzed by Western blot using anti-GFP antibody.
as §3

[1] = test system: A549, H157, Calu-1 and H292 cells; experiment: GFP-LC3 autophagosome quantification; assay type: cell-based, human; details: 48 h
Procedure: After 24 h, cells were treated with KRA-533 for 48 h. The percentages of LC3-GFP-transfected cells bearing LC3-GFP aggregates (LC3-FGPvac) were quantified as shown.
as §2

[2] = Single-dose maximum tolerated dose (MTD); assay type: in vivo
Procedure: To define the appropriate doses of KRA-533 for in vivo experimentation, standard single-dose maximum tolerated dose (MTD) was determined. Nu/Nu nude mice were treated with a single dose of 150, 300 or 400 mg/kg i.p., followed by toxicity observations. […] Based on these findings, mice might die mainly from liver and kidney damage at a single 400 mg/kg dose. Thus, the single dose MTD of KRA-533 ranges from 300 to 400 mg/kg. One tenth of single-dose MTD was contemplated (˜30-40 mg/kg) for continuous treatment, e.g., between 10 and 30 mg/kg/day.

[3] = test system: A549 xenografts bearing mutant KRAS; experiment: A549 lung cancer xenografts bearing KRAS mutation (G12S); assay type: in vivo
Procedure: Tumor volume was measured once every 2 days (left panel). Tumor volumes of 6 individual mice in each group were compared on day 28 (right panel). After 28 days, the mice were sacrificed, and the tumors were removed and analyzed.
Expression levels of active caspase-3, cleaved PARP, Beclin-1 and LC3-II in tumor tissues were analyzed by Western blot.
To test the potency of KRA-533 in vivo, lung cancer xenografts derived from A549 cells bearing KRAS mutation (G12S) were treated with increasing doses (0, 7.5, 15, and 30 mg/kg/day) of KRA-533 i.p. for 28 days. […] To assess whether KRA-533 induced suppression of tumor growth via apoptosis and autophagy in vivo, representative samples from harvested tumor tissues were analyzed by immunohistochemistry (IHC) for active caspase-3 or LC3-II.

[4] = 0, 7.5, 15, and 30 mg/kg/day i.p. for 28 days

SMILES: O=C(CBr)NCCCCc1ccc(C(=O)O)cc1 [KRA-533, 4-(4-(2-bromoacetamido)butyl)benzoic acid]
- activity against human lung cancer cells (cytotoxicity, SRB assay) (human lung cancer cells): the most potent activity against human lung cancer cells
- KRAS activity, cell lines bearing KRAS mutation versus without (KRAS; 10 μM): enhanced KRAS activity to a greater extent in cell lines bearing KRAS mutation than in cell lines without KRAS mutation
- KRAS activity (GTP-KRAS pulled down by Raf-1-RBD) (KRAS; 10 μM, human lung cancer cell lines with or without KRAS mutation): enhanced KRAS activity in most human lung cancer cell lines tested, except H292
- KRAS activity (KRAS-GTP), dose response (KRAS; A549, H157, Calu-1 and H292 cells, 0, 5, 10, 15 μM): enhanced KRAS activity in a dose-dependent manner
- melting temperature (Tm) / binding, KRAS WT (KRAS WT): Dose dependent increases in melting temperature (Tm); also recorded: could bind
- activity of exogenous GFP-tagged S17A KRAS (GFP-KRAS-GTP) (GFP-tagged KRAS S17A): activated exogenous WT and S17A
- percentage of GFP-LC3vac cells [1]: enhanced the percentage of GFP-LC3vac cells in a dose-dependent manner
- MTD ([2]; mouse, in vivo, ip, Nu/Nu nude mice): 300 to 400 mg/kg
- Alanine transaminase (ALT) ([2]; single dose of 400 mg/kg): significantly elevated
- aspartate transaminase (AST) ([2]; single dose of 400 mg/kg): significantly elevated
- blood urea nitrogen (BUN) ([2]; single dose of 400 mg/kg): significantly elevated
- death of mice (time) ([2]; single dose of 400 mg/kg): 8 days
- weight loss or other toxicities (hematologic, liver and kidney function) ([2]; single dose of 150 or 300 mg/kg i.p.): did not cause weight loss or other toxicities
- apoptosis and autophagy in tumor tissues (IHC active caspase-3, LC3-II) [3, 4]: induced apoptosis and autophagy in tumor tissues in a dose-dependent manner
- tumor growth [3, 4]: suppressed tumor growth in a dose-dependent manner
- blood cells (WBC, RBC and PLT), BUN and ALT/AST ([3]; 7.5˜30 mg/kg/d): in the normal range
- body weight ([3]; 7.5˜30 mg/kg/d): no weight loss
- tolerability ([3]; 7.5˜30 mg/kg/d): well tolerated without significant toxicity
- histopathology of normal tissues (brain, heart, lung, liver, spleen, kidney and intestine) ([3]; 7.5˜30 mg/kg/day): no evidence of normal tissue toxicities
- active KRAS in tumor tissues (Raf-1-RBD pull-down) ([3]; tumor tissue lysates after 28 days): accumulation of active KRAS in tumor tissues
